Assay results as given in publication PMC8808168, “Enzymatic and structural characterization of HAD5, an essential phosphomannomutase of malaria-causing parasites” (The Journal of Biological Chemistry, 2021).
Each block holds one molecule with its values, some of them ahead of it.

Key:
HAD5 (PfHAD5) = target: T1, HAD5 (PfHAD5) (Plasmodium falciparum, UniProt Q8IJM5); test: linked PMM assay, activation; type: biochemical; settings: 12.5 μM G-1,6-P, 1 mM mannose 6-phosphate, pH 7.5, room temperature; activator
T1 construct: gene PF3D7_1017400; pET28a, N-terminal His-tag cut with thrombin; E. coli BL21 Gold (DE3); size-exclusion purified
T1 sequence (Q8IJM5 1-244): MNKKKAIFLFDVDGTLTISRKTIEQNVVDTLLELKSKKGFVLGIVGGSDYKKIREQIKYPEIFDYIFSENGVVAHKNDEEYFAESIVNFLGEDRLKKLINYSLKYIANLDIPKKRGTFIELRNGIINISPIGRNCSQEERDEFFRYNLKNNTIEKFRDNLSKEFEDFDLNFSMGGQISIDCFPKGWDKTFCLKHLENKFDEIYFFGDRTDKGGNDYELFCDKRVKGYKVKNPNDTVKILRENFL

HsPMM1 = target: T2, HsPMM1 (Homo sapiens, UniProt Q92871); test: coupled PGM assay (G6PDH, NADPH at […] nm); type: biochemical; settings: 1 mM glucose 1-phosphate, 10 μM G-1,6-P, 1 mM MgCl2, pH 7.5, room temperature, 133 nM enzyme
T2 construct: gene PMM1; pET28a, His-tag cut with thrombin; E. coli BL21 Gold (DE3)
T2 sequence (Q92871 2-262): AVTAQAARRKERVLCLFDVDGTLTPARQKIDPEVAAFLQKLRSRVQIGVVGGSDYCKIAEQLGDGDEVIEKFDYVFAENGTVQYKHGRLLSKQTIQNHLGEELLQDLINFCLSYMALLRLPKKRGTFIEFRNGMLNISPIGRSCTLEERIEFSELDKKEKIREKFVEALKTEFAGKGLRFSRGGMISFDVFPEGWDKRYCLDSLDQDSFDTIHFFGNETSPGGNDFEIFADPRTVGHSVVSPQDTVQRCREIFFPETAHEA

HsPMM2 = target: T3, HsPMM2 (Homo sapiens, UniProt O15305); test: coupled PGM assay (G6PDH, NADPH at […] nm); type: biochemical; settings: 1 mM glucose 1-phosphate, 10 μM G-1,6-P, 1 mM MgCl2, pH 7.5, room temperature, 65 nM enzyme
T3 construct: gene PMM2; pET28a, His-tag cut with thrombin; E. coli BL21 Gold (DE3)
T3 sequence (O15305 2-246): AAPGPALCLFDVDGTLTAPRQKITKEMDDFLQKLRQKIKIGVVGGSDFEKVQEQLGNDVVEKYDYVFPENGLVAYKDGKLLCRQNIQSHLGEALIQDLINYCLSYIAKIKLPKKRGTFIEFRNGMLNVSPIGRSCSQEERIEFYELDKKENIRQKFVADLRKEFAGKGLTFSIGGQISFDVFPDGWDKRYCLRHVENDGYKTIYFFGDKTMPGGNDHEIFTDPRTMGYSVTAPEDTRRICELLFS

purified protein = substrate: O=P(O)(O)O[C@H]1O[C@H](CO)[C@@H](O)[C@H](O)[C@H]1O; test: purified protein; settings: G1P to G6P, 10 μM G-1,6-P, 0.75 mM NADP+, 25 mM Tris-HCl, 25 mM NaCl, 1 mM MgCl2, pH 7.5, room temperature

Molecule: O=P(O)(O)OC[C@H]1O[C@H](OP(=O)(O)O)[C@H](O)[C@@H](O)[C@@H]1O [glucose-1,6-bisphosphate]
linked PMM assay, activation (HAD5 (PfHAD5)): upon addition of the known cofactor glucose-1,6-bisphosphate

IC50 (HsPMM1): 895 ± 66 µM
IC50 (HsPMM2): 413 ± 41 µM
Molecule: O=P(O)(O)C[C@H]1O[C@H](CNO)[C@@H](O)[C@H](O)[C@H]1O [D9, compound D9]

B1: HAD5 (PfHAD5) (Plasmodium falciparum 3D7) (protein)
chain: T1 sequence (Q8IJM5 1-244)
Km (purified protein): 5.2 ± 1.4 µM
kcat (purified protein): 7.8e-06 ± 1.2e-06 s⁻¹
kcat/Km (purified protein): 1.5 M⁻¹ s⁻¹
